Source: US20240287123A1 (Victoria Link Limited, priority 2021, published 2024)
pEC50: −log10 of the molar value. “Also recorded” adds a separate entry of the source. Where two headings read alike, the source gives them in different places.

Key:
[1] = system: EBV (Akata/Akata); assay: EBV assay: viral DNA quantification in induced Akata cells; format: cell-based, Epstein-Barr virus; settings: for activity against EBV: cell-based assay, highest concentration tested in primary assays 50 μM
Protocol: Akata cells were obtained from Louisiana State University, Baton Rouge, LA. The HCMV strain AD169 was obtained from the American Type Culture Collection (ATCC, Manassas, VA). Akata cells latently infected with EBV were obtained from Louisiana State University, Baton Rouge, LA.
(§1) Each experiment that evaluates the antiviral activity of compounds includes both positive and negative control compounds to ensure the performance of each assay. Concurrent assessment of cytotoxicity was also performed for each study in the same cell line and with the same compound exposure.
Assays for EBV were performed by reported methods.^37 Akata cells were induced to undergo a lytic infection with 50 μg/ml of a goat anti-human IgG antibody. Experimental compounds were diluted within plates. The cells were added and incubated for 72 h. Similar plates were initiated without virus induction/addition and used for measuring cytotoxicity by the addition of CTG. For all assays, the replication of the virus was assessed by the quantification of viral DNA. For EBV, primers 5′-[…]-3′ and 5′-CAG TTC CTC GCCTTAGGTTG-3 amplified a fragment corresponding to coordinates 96802-97234 in EBV genome (AJ507799). Compound concentrations sufficient to reduce genome copy number by 50% were calculated from experimental data as well as compound cytotoxicity.

[2] = system: HHV-6B (Z29; MOLT-3); assay: HHV-6B antiviral assay (Z29; MOLT-3); format: cell-based, human betaherpesvirus 6B
[3] = Cytotoxicity in Akata cells (CTG), concurrent with EBV assay; format: cell-based; settings: human, Table 1
Protocol: as §1
Assays for EBV were performed by reported methods.^37 Akata cells were induced to undergo a lytic infection with 50 μg/ml of a goat anti-human IgG antibody. Experimental compounds were diluted within plates. The cells were added and incubated for 72 h. Similar plates were initiated without virus induction/addition and used for measuring cytotoxicity by the addition of CTG. For all assays, the replication of the virus was assessed by the quantification of viral DNA. […] Compound concentrations sufficient to reduce genome copy number by 50% were calculated from experimental data as well as compound cytotoxicity.

[4] = system: primary human MDM; assay: Toxicity to MDM: LDH assay and light microscopy; format: cell-based
Protocol: Light microscopy was used to image MDMs on day 7 of infection. […] Colorimetric LDH assays were also performed on culture supernatants from these same cells on day 4 of infection to assess cell death.
At the end of each experiment, cells were imaged by light microscopy. After aspirating off media, cells were washed with PBS, and lysates were harvested in extraction buffer containing 0.1% Formic acid, 50% ACN, 40% MeOH, 10% H2O.
Drug toxicity was analyzed using an LDH assay kit according to manufacturer's instructions (Abcam #ab65393, Toronto, Canada). Briefly, supernatants from duplicate plates per treatment condition were added to a 96-well plate. Each supernatant was run in triplicate. Provided assay buffer was added to culture supernatants after mixing with a substrate solution that turns orange upon lactate exposure. After incubation for 30-45 min, colorimetric signal was quantified an OD of 450 nm. LDH was a positive control as well as cells lysed with 10% lysis buffer in media representing the “high control” to which % cytotoxicity was measured. The reference sample was either control uninfected cells treated with DMSO or negative control HIV-infected cells treated with DMSO. Culture media alone was used as a technical negative control. This background signal that was subtracted from all test wells.

[5] = system: HIVADA; assay: HIV p24 alphaLISA in infected monocyte derived macrophages; format: cell-based, Human Immunodeficiency Virus
Protocol: Primary human MDMs were cultured from peripheral blood mononuclear cells and pre-treated for 24 h with ddhC (100 μM), compound 8 (100 μM), compound 21 (100 μM), emtricitabine control (15 μM, 10 μM, 1 μM, 0.1 μM), or the drug vehicle, DMSO. MDM were then infected with HIVADA in the presence of these compounds and treated daily (with compound), while culture supernatants were collected to quantify levels of HIV p24, a viral capsid protein, on days 2-7 of infection.
Leukopaks from healthy donors were obtained from the New York Blood Center and processed by Ficoll gradient centrifugation to isolate peripheral blood mononuclear cells (PBMC). These PBMC were cultured adherently into monocyte derived macrophages (MDM), according to published protocols, on 60 mm dishes for 6 days with 10-20 ng/ml macrophage colony stimulating factor (M-CSF). MDM were pre-treated with ddhC, compound 8, compound 21, emtricitabine (Cat. No .: 10071), or DMSO vehicle at indicated concentrations for 24 hours (NIH AIDS Reagent Program, Bethesda, MD). Cells were left uninfected or infected for 24 h in the presence of one of the compounds listed above with 20 ng/mL HIVADA, a macrophage-tropic HIV strain originally derived from a person with HIV (NIH). Media was changed daily with the mentioned compounds added each time, and supernatants were collected on days 2, 3, 4, 5, 6, and 7 of infection. Each treatment condition was analyzed in duplicate plates per experiment.
Supernatant samples were analyzed for the viral capsid protein, HIV p24, by a sensitive p24 alphaLISA according to the manufacturer's protocol (Perkin-Elmer, Waltham, MA). Treatment conditions were analyzed in duplicate plates, and each supernatant was analyzed in duplicate on a 96-well alphaLISA plate. These were then fit to a sigmoid standard curve to extrapolate HIV p24 levels in pg/mL within the assay limits of detection.

[6] = human gammaherpesvirus 4, Akata, read-out: Result for compound (EC50/UM), EBV Akata/Akata, assay order Secondary
[7] = human gammaherpesvirus 4, Akata, Akata/Akata, Table 1, read-out: EBV EC50
[8] = human gammaherpesvirus 4, Akata, read-out: EC50 against EBV
[9] = human gammaherpesvirus 4, Akata, read-out: Result for compound (EC50/UM), EBV Akata/Akata, assay order Primary
[10] = human gammaherpesvirus 4, Akata, EBV Akata/Akata, assay order Secondary, read-out: Result for compound (EC50/UM)

With `CC(C)(C)C(=O)SCCOP(=O)(OCCSC(=O)C(C)(C)C)OCC1=C[C@@H](O)[C@H](n2ccc(NO)nc2=O)O1` as the molecule, how does the pEC50 [1, 6] read?
Its pEC50 is 4.78.

With `Nc1ccn(C[C@@H](CO)OCP(=O)(O)O)c(=O)n1` [Cidofovir, cidofovir, reference compound] as the molecule, how does the pEC50 ([2]; cidofovir (CDV) control, MOLT-3, HHV-6B, control run alongside, Primary, read-out: CDV control result (EC50/UM)) read?
Its pEC50 is 5.47.

What about the pEC50 ([2]; cidofovir (CDV) control, MOLT-3, HHV-6B, control run alongside, Secondary, read-out: CDV control result (EC50/UM)) of the same molecule?
Its pEC50 is 5.37.

What about the CC50 at 72 h ([3]; Akata cells (without virus induction)) of the same molecule?
Its CC50 at 72 h is > 100 µM.

What about the pEC50 ([1]; EBV Akata/Akata, control run alongside, Primary, read-out: CDV control result (EC50/UM)) of the same molecule?
The pEC50 was 5.59.

What about the pEC50 ([1]; EBV Akata/Akata, control run alongside, Secondary, read-out: CDV control result (EC50/UM)) of the same molecule?
The pEC50 was 5.71.

What about the pEC50 [1, 7] of the same molecule?
The pEC50 was 5.08.

What about the pEC50 [1, 8] of the same molecule?
The pEC50 was 5.08.

What about the pEC50 ([1]; read-out: CDV control result (EC50/UM), EBV Akata/Akata, control run alongside, Secondary) of the same molecule?
Its pEC50 is 5.23.

With `CC(C)OC(=O)[C@H](C)N[P@](=O)(OCC1=C[C@@H](O)[C@H](n2ccc(N)nc2=O)O1)Oc1ccccc1` [Compound 21, 3′-Deoxy-3′,4′-didehydrocytidine-5′-O-[phenyl(isopropoxy-L-alaninyl) ]-Sp-phosphoramidate] as the molecule, how does the “LDH activity in HIV-infected MDMs relative to DMSO controls” value ([4]; 100 μM, day 4 of infection) read?
Its value is “nearly identical”.

What about the “toxicity to MDMs” value ([4]; 100 uM, visual inspection by light microscopy and colorimetric LDH assays) of the same molecule?
Its value is “non-toxic”.

What about the CC50 at 72 h [3] of the same molecule?
The CC50 at 72 h was > 50 µM.

And the “activity against EBV” value [1]?
The value was “more weakly inhibiting”.

What about the pEC50 [1, 7] of the same molecule?
The pEC50 was 4.63.

What about the pEC50 [1, 9] of the same molecule?
Its pEC50 is 4.62.

And the pEC50 [1, 8]?
Its pEC50 is 4.41 to 5.12.

And the “levels of HIV p24 viral capsid protein” value ([5]; 100 μM, infected MDM, days 2-7, compared with DMSO control)?
The value was “significantly reduce; also recorded: significantly decreased”.

And the “impact on HIV replication relative to the DMSO control” value ([5]; low doses: compound 8 compound 21 (0.1-1 μM) as printed)?
Its value is “minimal impact”.

For `CC(C)(C)C(=O)OCC1=C[C@@H](O)[C@H](n2ccc(N)nc2=O)O1` [Compound 25], which “activity against EBV” value [1] is on record?
Its value is “comparably active”.

With `CCCCCC(=O)OCC1=C[C@@H](O)[C@H](n2ccc(N)nc2=O)O1` [Compound 27] as the molecule, how does the “activity against EBV” value [1] read?
The value was “inactive”.

For `CC(C)[C@H](N)C(=O)OCC1=C[C@@H](O)[C@H](n2ccc(N)nc2=O)O1` [Compound 30, 3′,4′-Didehydro-3′-deoxy-5′-O-L-valinoylcytidine], which “activity against EBV” value [1] is on record?
The value was “comparably active”.

For `CCC(CC)COC(=O)[C@H](C)N[P@](=O)(OCC1=C[C@@H](O)[C@H](n2ccc(N)nc2=O)O1)Oc1ccccc1` [Compound 32, 3′,4′-Didehydro-3′-deoxycytidine-5′-0-{phenyl [2-(ethyl)but-1-yloxy-L-alaninyl] }-Sp-phosphoramidate], which “activity against EBV” value [1] is on record?
The value was “not active”.

With `CC(C)(C)C(=O)OCOP(=O)(OCOC(=O)C(C)(C)C)OCC1=C[C@@H](O)[C@H](n2ccc(N)nc2=O)O1` [Compound 35, 3′,4′-Didehydro-3′-deoxycytidine-5′-bis(pivaloyloxymethyl)phosphate] as the molecule, how does the “activity against EBV” value [1] read?
Its value is “inactive”.

What does the source list for `CC(C)C(=O)OCC1=CC[C@H](n2ccc(N)nc2=O)O1` [Compound 39, 3′,4′-Didehydro-2′,3′-dideoxy-5′-O-isobutyroylcytidine]?
activity against HHV-6B [2]: active; pEC50 ([2]; Human betaherpesvirus 6B, MOLT-3, HHV-6B Z29, MOLT-3, Primary, read-out: Result for compound (EC50/UM)): 5.26; pEC50 ([2]; Human betaherpesvirus 6B, MOLT-3, HHV-6B Z29, MOLT-3, Secondary, read-out: Result for compound (EC50/UM)): 4.78; activity against EBV [1]: activity comparable to their 2′-hydroxylated analogues

For `Nc1ccn([C@H]2CC=C(CO)O2)c(=O)n1` [Compound A-30, 3′,4′-Didehydro-2′,3′-dideoxycytidine], which “activity against EBV” value [1] is on record?
The value was “activity comparable to their 2′-hydroxylated analogues”.

With `CC(C)C(=O)OCC1=C[C@@H](O)[C@H](n2ccc(N)nc2=O)O1` [drawing 64, 3′-Deoxy-3′,4′-didehydro-5′-O-isobutyroyl-cytidine] as the molecule, how does the pEC50 [1, 10] read?
Its pEC50 is 4.79.

With `CC(=O)OCC1=C[C@@H](O)[C@H](n2ccc(N)nc2=O)O1` [drawing 67] as the molecule, how does the pEC50 [1, 9] read?
Its pEC50 is 5.05.

With `CC(=O)OCC1=C[C@@H](O)[C@H](n2ccc(N)nc2=O)O1` [drawing 68] as the molecule, how does the pEC50 [1, 6] read?
The pEC50 was 5.10.

With `CC(C)(C)C(=O)OCC1=C[C@@H](O)[C@H](n2ccc(N)nc2=O)O1` [drawing 69] as the molecule, how does the pEC50 [1, 10] read?
Its pEC50 is 4.80.

With `CC(C)[C@H](N)C(=O)OCC1=C[C@@H](O)[C@H](n2ccc(N)nc2=O)O1` [drawing 70] as the molecule, how does the pEC50 [1, 10] read?
Its pEC50 is 4.73.

With `Nc1ccn([C@H]2CC=C(CO)O2)c(=O)n1` [drawing 72, 3′,4′-Didehydro-2′,3′-dideoxycytidine] as the molecule, how does the pEC50 [1, 9] read?
The pEC50 was 4.53.

With `CC(C)C(=O)OCC1=CC[C@H](n2ccc(N)nc2=O)O1` [drawing 73, 3′,4′-Didehydro-2′,3′-dideoxy-5′-O-isobutyroylcytidine] as the molecule, how does the pEC50 [1, 9] read?
The pEC50 was 5.20.

With `CC(C)C(=O)OCC1=CC[C@H](n2ccc(N)nc2=O)O1` [drawing 74, 3′,4′-Didehydro-2′,3′-dideoxy-5′-O-isobutyroylcytidine] as the molecule, how does the pEC50 [1, 10] read?
Its pEC50 is 5.15.

With `CCCCCC(=O)OCC1=C[C@@H](O)[C@H](n2ccc(N)nc2=O)O1` [drawing 75] as the molecule, how does the pEC50 [1, 9] read?
The pEC50 was < 4.30.

With `CC(C)(C)C(=O)OCOP(=O)(OCOC(=O)C(C)(C)C)OCC1=C[C@@H](O)[C@H](n2ccc(N)nc2=O)O1` [drawing 76] as the molecule, how does the pEC50 [1, 9] read?
The pEC50 was < 4.30.

With `CCC(CC)COC(=O)[C@H](C)N[P@](=O)(OCC1=C[C@@H](O)[C@H](n2ccc(N)nc2=O)O1)Oc1ccccc1` [drawing 77] as the molecule, how does the pEC50 [1, 9] read?
The pEC50 was < 4.30.
